# From paper PMC8306477, “Neuroprotective Effect of Terpenoids Recovered from Olive Oil By-Products” (Foods, 2021)
# Read-outs that look alike come from different tables or passages of the source. Marks after values point to notes of the source that are not given here.
# Columns and labels:
# [1] = ABTS•+ radical scavenging assay; conditions: mean ± SD (n = 3); 45 min, 30 °C
# Experimental: Antioxidant activity of all olive leaves extracts was measured using the ABTS^•+ radical scavenging assay according to Re et al., (1999) with modifications. […] After this time, radical ABTS^•+ solution was diluted with the buffer (5 mM, pH 7.4) to adjust the absorbance to 0.700 ± 0.002 measured at 734 nm wavelength and 30 °C. The 96-well microplate containing 250 μL ABTS^•+ solution and 100 μL of olive leaves extract at six different concentrations (from 14.3 to 143 μg/mL EtOH/H2O (1:1, v/v)) was incubated in the dark at 30 °C. After 45 min, the absorbance at 734 nm was measured. Trolox and ascorbic acid were used as reference standards while rosemary extract was used as natural reference standard. All measurements were performed in triplicate. ABTS^•+ inhibition percentage from olive leaves extracts was calculated as follows:(3) %Inh=AABTScontrol−(Asample−Asample blank)/AABTS control×100 where AABTScontrol is the absorbance of ABTS^•+ radical in buffer at t = 0 min; Asample, is the absorbance of an ABTS^•+ solution mixed with extracts; and Asample blank is the absorbance of samples without ABTS^•+.
# [2] = ROS scavenging capacity, ORAC method; conditions: mean ± SD (n = 3)
# Experimental: Oxygen radical absorbance capacity (ORAC) method was performed as reported by Ou et al. (2001). Briefly, 100 μL of the extract sample at different concentrations (5–50 μg/mL) in EtOH/H2O (1: 9, v/v), 100 μL of AAPH (590 mM) in PBS buffer (30 mM, pH = 7.5), 25 μL of fluorescein (10 μM) in PBS buffer, and 100 μL of PBS buffer were placed in a 96-well microplate. The fluorescence kinetic measurements were recorded at λexcitation = 485 nm and λemission = 530 nm at intervals of 5 min for a runtime of 60 min at 37 °C. Ascorbic acid was used as the reference standard. Each measurement was carried out in triplicate and the capacity of the extract for scavenging peroxyl radicals generated by spontaneous decomposition of AAPH was calculated through the inhibition percentage of the difference between the Area Under the Curve (AUC) of fluorescence decay in the presence (AUCsample) or absence (AUCcontrol) of the sample by Equation (4). (4) %Inh=AUCcontrol−AUCsample/AUCcontrol×100
# [3] = PAMPA-BBB permeability of terpenes of SS adsorbate; type: in vitro ADME
# Experimental: Previously, the BBB solution was prepared by dissolving 8 mg of PBL and 4 mg of cholesterol in 600 μL n-dodecane. Ethanolic olive leaves extract was dissolved in buffer (5 mM pH 7.4) as an initial solution at 10 mg/mL (EtOH/buffer, 1:1, v/v). Then, the filter membrane of the donor microplate was impregnated with 5 μL of BBB solution and the acceptor microplate was filled with 350 μL of buffer. Then, 200 μL of initial solution was added to the donor microplate which was assembled like a sandwich over the acceptor microplate. The microplate was incubated in the dark for 4 h at 37 °C and continuous agitation. After the incubation process, 200 μL were taken from each microplate, placed into a vial, dried, and reconstituted in 50 μL of EtOH to obtain donor and acceptor solutions. Both solutions were injected in the GC-qTOF-MS system to identify and compare the compounds present in both microplates. […] CD(t) is compound concentration in the donor well at time t and CA(t) is compound concentration in the acceptor well at time t.
# [4] = RNS scavenging capacity, nitric oxide radical (Griess) assay; conditions: NO• scavenging; mean ± SD (n = 3)
# Experimental: RNS was evaluated by the nitric oxide (NO^•) radical scavenging assay of OLE, according to Ho et al. (2010), based on the reaction of Griess. The 96-well microplate filling distribution was as follows: 100 μL of extract sample at different concentrations (250–2500 μg/mL) in EtOH/H2O (1:3, v/v), and 50 μL of SNP (5 mM) in buffer (30 mM pH = 7.5). The mixture was incubated at room temperature for 2 h under direct light. Nitrile ion concentration was measured at […] after the addition of […] Ascorbic acid was used as the reference standard. Each measurement was carried out in triplicate and the capacity of the extract for scavenging NO^• radicals was calculated through inhibition percentage as described in Equation (3).
# [5] = design: method as in PMID 23565574; conditions: BBB permeability of pharmacological drugs; cited from earlier work
# [6] = terpene within Sea Sand Adsorbate, 4 h, 37 °C, buffer pH 7.4, GC-qTOF-MS, read-out: PAMPA-BBB Log Pe (RSD %) (converted)
compound,measurement,setting,value
"Cc1c(C)c2c(c(C)c1O)CCC(C)(C(=O)O)O2 (racemic) [Trolox, (±)-6-Hydroxy-2,5,7,8-tetramethylchromane-2-carboxylic acid]",Antioxidant Capacity by ABTS IC50,[1],2.50 ± 0.02 ^r µg/mL
same,ROS IC50,[2],0.98 ± 0.11 ^c µg/mL
Cc1c(O)cc2c(c1C)O[C@](C)(CCC[C@H](C)CCC[C@H](C)CCCC(C)C)CC2 [γ-Tocopherol],Papp at 4 h,[3]; [6],8.91 ×10⁻⁶ cm/s
C[C@H]1[C@H](C)CC[C@]2(CO)CC[C@]3(C)C(=CC[C@@H]4[C@@]5(C)CC[C@H](O)C(C)(C)[C@@H]5CC[C@]43C)[C@H]12 [Uvaol],Papp at 4 h,[3]; [6],1.51 ×10⁻⁶ cm/s
O=C1O[C@H]([C@@H](O)CO)C(O)=C1O [Ascorbic acid],Antioxidant Capacity by ABTS IC50,[1],25.00 ± 0.30 ^a µg/mL
same,RNS IC50,[4],1100.90 ± 13.96 ^b µg/mL
same,ROS IC50,[2],1.29 ± 0.09 ^b µg/mL
CC(C)=CCC/C(C)=C/CC/C(C)=C/CC/C=C(\C)CC/C=C(\C)CCC=C(C)C [Squalene],Papp at 4 h,[3]; [6],13.2 ×10⁻⁶ cm/s
CC1(C)CC[C@]2(CO)CC[C@]3(C)C(=CC[C@@H]4[C@@]5(C)CC[C@H](O)C(C)(C)[C@@H]5CC[C@]43C)[C@@H]2C1 [Erythrodiol],Papp at 4 h,[3]; [6],0.575 ×10⁻⁶ cm/s
COc1ccc2c3c1O[C@H]1C[C@@H](O)C=C[C@@]31CCN(C)C2 [Galantamine],log Pe ± SD,[5],−5.35 ± 0.02 cm/s
Cc1c(C)c2c(c(C)c1O)CC[C@@](C)(CCC[C@H](C)CCC[C@H](C)CCCC(C)C)O2 [α-Tocopherol],Papp at 4 h,[3]; [6],1.15 ×10⁻⁶ cm/s
CC[C@H](CC[C@@H](C)[C@H]1CC[C@H]2[C@@H]3CC=C4C[C@@H](O)CC[C@]4(C)[C@H]3CC[C@]12C)C(C)C [β-Sitosterol],Papp at 4 h,[3]; [6],0.912 ×10⁻⁶ cm/s
CC1(C)CC[C@]2(C)CC[C@]3(C)C(=CC[C@@H]4[C@@]5(C)CC[C@H](O)C(C)(C)[C@@H]5CC[C@]43C)[C@@H]2C1 [β-Amyrin],Papp at 4 h,[3]; pH 7.4,0.479 ×10⁻⁶ cm/s
O=c1c(O)c(-c2ccc(O)c(O)c2)oc2cc(O)cc(O)c12 [Quercetin],log Pe ± SD,[5],−7.02 ± 0.08 cm/s
